From patent publication US12410160B2 (Gilead Sciences, Inc., priority 2021, dated 2025) come the findings set out here.

Data set [1] can be described thus: pKa analysis by capillary electrophoresis (pKa PRO Analyzer, co-solvent method). Type of data set: physicochemical. Particulars: co-solvent method (60% to 30% methanol buffers); for 1st pKa: pH range 1.7-11.2; for pKa: methanol/aqueous co-solvent buffers. As for the experimental part:
The 10 mM DMSO stock solutions of test articles (TAs) were diluted 100-fold with either 2 mM HCl or 2 mM NaOH and methanol. The final concentration of methanol was 60%, TA concentration was 100 μM, and DMSO concentration was 1%. The TAs were transferred into 24 consecutive wells of a 96-well plate for analysis using the co-solvent method. […] All data was obtained using a pKa. PRO Analyzer (AATI, Ankey, IA) by performing four consecutive CE runs from 60% to 30% co-solvent buffers. Norfloxacin was used as a daily performance-indicating standard. The pKa values were predicted by using pKa. Estimator® software (AATI, Ankey, IA) by relating molecular weight of the TA to its mobility.

The next data set has as its target human KHK-C (Homo sapiens (Human), UniProt P50053). Description: KHK Biochemical Assay (IC50), ADP-Glo, KHK-C. Particulars: average of at least two separate assays. Put shortly: (§1)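 ADP-Glo luminescence measured ADP made over a 4 h room-temperature reaction of ATP plus fructose, started after 30 min compound–enzyme pre-incubation. Buffer: 50 mM Hepes pH 7.4, 140 mM KCl, 5 mM MgCl2, 0.01% Triton-X. Enzyme was His-tagged, BL21 (DE3)-expressed, Ni-NTA-purified; compounds in 1:3 DMSO dilution series.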

Another data set addresses human KHK-A (Homo sapiens (Human), UniProt P50053). The experiment in a line: KHK Biochemical Assay (IC50), ADP-Glo, KHK-A. Particulars: average of at least two separate assays. Put shortly:
as §1

In a further data set the test system is HepG2 cells. The experiment in a line: F1P Cell-Based Assay (EC50), 13C6-fructose-1-phosphate in HepG2 cells (cell culture medium or 50% human plasma).
The next data set deals with human OATP1B1 (Homo sapiens (Human), UniProt Q9Y6L6). Description: In Vitro Inhibition Assessment with Human OATP1B1 Transporter. It is filed as in vitro ADME. The conditions noted are these: HEK293-OATP1B1 cells, probe substrate pravastatin. The essentials: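 Pravastatin uptake was measured by LC-MS/MS after a 5 min exposure with inhibitor, following a 15 min inhibitor preincubation, in transfected versus mock HEK293 cells. Transport activity was derived as (transfected − mock) with compound over the same difference with solvent. IC50 is the concentration halving maximal activity; final DMSO was 0.4%.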

Data set [2] addresses KHK-C expressed in NRK-52E cells (Homo sapiens (Human), UniProt P50053). The experiment in a line: KHK-C Cell-based Assay (EC50), NRK CTG, fructose-mediated ATP-depletion.
Setting [3] is: pH range 1.7-11.2, read-out: 1st pKa.
The mark [4] stands for this setting: Homo sapiens, HepG2, HepG2 cells, 50% human plasma, read-out: F1P 50% HP EC50.
The mark [5] stands for this setting: Homo sapiens, HepG2, read-out: F1P 10% FBS EC50, HepG2 cells, cell culture medium (10% FBS).
The mark [6] stands for this setting: pH range 1.7-11.2, read-out: 2nd pKa.

Read-outs that look alike come from different tables or passages of the source.

human OATP1B1, sequence (Q9Y6L6 whole entry): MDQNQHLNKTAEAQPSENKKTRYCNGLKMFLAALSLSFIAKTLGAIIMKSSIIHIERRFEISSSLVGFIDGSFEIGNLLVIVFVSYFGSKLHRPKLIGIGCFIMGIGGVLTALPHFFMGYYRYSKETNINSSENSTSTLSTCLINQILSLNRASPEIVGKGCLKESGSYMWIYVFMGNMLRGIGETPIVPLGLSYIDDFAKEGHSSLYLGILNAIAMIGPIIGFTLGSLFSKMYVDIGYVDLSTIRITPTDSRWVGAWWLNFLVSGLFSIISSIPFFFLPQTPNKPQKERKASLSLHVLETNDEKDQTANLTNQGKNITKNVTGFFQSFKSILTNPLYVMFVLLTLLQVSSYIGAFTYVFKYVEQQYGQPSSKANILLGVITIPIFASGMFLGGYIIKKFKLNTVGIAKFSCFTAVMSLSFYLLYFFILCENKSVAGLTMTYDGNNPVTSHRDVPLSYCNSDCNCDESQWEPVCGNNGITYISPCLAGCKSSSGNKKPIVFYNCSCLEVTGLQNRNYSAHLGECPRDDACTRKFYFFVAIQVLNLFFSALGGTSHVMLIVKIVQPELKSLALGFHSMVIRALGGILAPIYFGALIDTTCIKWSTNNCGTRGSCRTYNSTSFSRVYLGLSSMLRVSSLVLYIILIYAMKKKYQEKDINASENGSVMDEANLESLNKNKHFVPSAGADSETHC
human KHK-C, sequence (P50053 whole entry): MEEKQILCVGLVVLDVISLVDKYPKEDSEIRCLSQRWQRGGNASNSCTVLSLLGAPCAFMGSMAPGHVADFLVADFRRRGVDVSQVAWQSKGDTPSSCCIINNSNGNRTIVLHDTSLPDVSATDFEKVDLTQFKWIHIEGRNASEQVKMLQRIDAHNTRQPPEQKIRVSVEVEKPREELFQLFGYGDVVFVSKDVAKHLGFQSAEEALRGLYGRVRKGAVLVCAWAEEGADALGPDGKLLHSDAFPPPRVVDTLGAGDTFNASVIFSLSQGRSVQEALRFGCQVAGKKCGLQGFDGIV
KHK-C expressed in NRK-52E cells, sequence (P50053 whole entry): as above
human KHK-A, sequence (P50053 other isoform, or with tags, fused parts or gaps): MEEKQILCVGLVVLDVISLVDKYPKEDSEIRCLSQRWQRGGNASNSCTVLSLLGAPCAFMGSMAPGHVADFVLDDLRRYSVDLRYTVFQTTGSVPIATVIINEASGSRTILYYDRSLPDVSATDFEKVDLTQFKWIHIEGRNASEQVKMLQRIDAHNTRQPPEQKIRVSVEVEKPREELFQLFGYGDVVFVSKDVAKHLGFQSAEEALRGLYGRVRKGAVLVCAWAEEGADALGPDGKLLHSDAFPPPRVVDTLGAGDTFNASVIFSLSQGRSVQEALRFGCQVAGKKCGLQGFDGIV

Broadly, the IC50 is the concentration needed to halve the response being measured. High values mean lower potency, low ones higher potency. By EC50 is commonly meant the concentration giving half of the maximal effect. `C[C@H]1[C@H](F)CN1c1nc(-c2ccc([C@@H](N)CS(C)(=O)=O)cc2)c2c(n1)C(F)(F)CC2` (single isomer, unassigned) [Example 789]: the “1st pKa” value in data set [1] worked out at 6.4. Besides, the IC50 against human KHK-C stood at 3.9 nM; against human KHK-A it was 12.5 nM; against human OATP1B1 it was 19700 nM. In addition, the concentration giving a half-maximal response (EC50) with HepG2 cells (HepG2 cells, 50% human plasma, read-out: F1P 50% HP EC50) was determined as 30.6 nM; with HepG2 cells (read-out: F1P 10% FBS EC50, HepG2 cells, cell culture medium (10% FBS)), 22.7 nM.

As usually defined, the pKa is the negative logarithm of the acid dissociation constant. For `C[C@H]1[C@H](O)CN1c1nc(-c2ccc([C@]3(N)CCS(=O)(=O)C3)cc2)c2c(n1)C(F)(F)CC2` (single isomer, unassigned) [Example 795], the pKa in data set [1] (setting [3]) came to 4.9. Moreover, the figures for the 50% inhibitory concentration (IC50) against human KHK-C (ADP-Glo) and against human KHK-A (ADP-Glo) were 4.6 nM and 24.1 nM, respectively. Further, the half-maximal effective concentration (EC50) in the data set on HepG2 cells (setting [4]) turned out to be 88.8 nM; with HepG2 cells (setting [5]), 52.7 nM; in data set [2] it was 54.5 nM.

Regarding `C[C@H]1CCN1c1nc2c(c(-c3ccc(C4(N)COC4)cc3)n1)CCC2` [Example 131, (S)-3-(4-(2-(2-methylazetidin-1-yl)-6,7-dihydro-5H-cyclopenta[d]pyrimidin-4-yl)phenyl)oxetan-3-amine], the pKa turned out to be 4.25 in data set [1] (setting [3]) and 6.48 in data set [1] (setting [6]). Further, the 50% inhibitory concentration (IC50) against human KHK-C (ADP-Glo) came to 2.6 nM; at human KHK-A (ADP-Glo), 6 nM. This compound also yielded an EC50 in data set [2] of 10.9 nM.

With `C[C@H]1CCN1c1nc2c(c(-c3ccc4c(N)nc(N)nc4c3)n1)CCC2` [Example 147, (S)-7-(2-(2-methylazetidin-1-yl)-6,7-dihydro-5H-cyclopenta[d]pyrimidin-4-yl)quinazoline-2,4-diamine], the pKa in data set [1] (setting [3]) came to 3.59; in data set [1] (setting [6]), 6.43. For the same compound, the concentration for half-maximal inhibition (IC50) against human KHK-C (ADP-Glo) was determined as 18.7 nM; against human KHK-A (ADP-Glo) it was 12.3 nM. Also, the EC50 in data set [2] came out at 35.3 nM.

Turning to `C[C@H]1CCN1c1nc2c(c(-c3ccc(C4(N)CC4)cc3)n1)CCC2` [Example 295, (S)-1-(4-(2-(2-methylazetidin-1-yl)-6,7-dihydro-5H-cyclopenta[d]pyrimidin-4-yl)phenyl)cyclopropan-1-amine], the figures for the pKa in data set [1] (setting [3]) and in data set [1] (setting [6]) were 4.25 and 8.01, respectively. Moreover, the values for the IC50 against human KHK-C (ADP-Glo) and on human KHK-A (ADP-Glo) were 1.4 nM and 2.6 nM, respectively. The compound also registered an EC50 in data set [2] of 6.2 nM.

With `C[C@H]1CCN1c1nc2c(c(-c3cccc(CN)c3)n1)CCC2` [Example 329, [3-[2-[(2S)-2-methylazetidin-1-yl]-6,7-dihydro-5H-cyclopenta[d]pyrimidin-4-yl]phenyl]methanamine], the figures for the pKa in data set [1] (setting [3]) and in data set [1] (setting [6]) were 4.12 and 9.27, respectively. The IC50 on human KHK-C (ADP-Glo) is 18.5 nM; on human KHK-A (ADP-Glo), 24.5 nM. In data set [2], this compound gave an EC50 of 339 nM.

For `C[C@H]1CCN1c1nc2c(c(-c3ccccc3)n1)CCC2` [Example 331, 2-[(2S)-2-methylazetidin-1-yl]-4-phenyl-6,7-dihydro-5H-cyclopenta[d]pyrimidine], the pKa in data set [1] (setting [3]) is 4.14. The half-maximal inhibitory concentration (IC50) against human KHK-C (ADP-Glo) stood at 242 nM; against human KHK-A (ADP-Glo), 255 nM. Moreover, the EC50 in the data set with HepG2 cells (setting [4]) came out at 4610 nM; in the data set on HepG2 cells (setting [5]), 253 nM; in data set [2], 384 nM.

Turning to `C[C@H]1CCN1c1nc2c(c(-c3cccc(CN4CCC4)c3)n1)CCC2` [Example 347, 4-[3-(azetidin-1-ylmethyl)phenyl]-2-[(2S)-2-methylazetidin-1-yl]-6,7-dihydro-5H-cyclopenta[d]pyrimidine], the pKa in data set [1] (setting [3]) is 3.69; in data set [1] (setting [6]), 9.16. In addition, the IC50 on human KHK-C (ADP-Glo) was 23.8 nM; against human KHK-A (ADP-Glo) it was 22.7 nM. This compound also gave an EC50 in data set [2] of 17.1 nM.

Regarding `C[C@H]1CCN1c1nc2c(c(-c3ccc4c(c3)CCNC4)n1)CCC2` [Example 379, 6-[2-[(2S)-2-methylazetidin-1-yl]-6,7-dihydro-5H-cyclopenta[d]pyrimidin-4-yl]-1,2,3,4-tetrahydroisoquinoline], the values for the pKa in data set [1] (setting [3]) and in data set [1] (setting [6]) were 4.31 and 9.19, respectively. The values for the IC50 against human KHK-C (ADP-Glo) and at human KHK-A (ADP-Glo) were 4.6 nM and 4.1 nM, respectively. The values for the EC50 (in the data set on HepG2 cells (setting [4]); in the data set with HepG2 cells (setting [5]); in data set [2]) were 3.1 nM, 1.3 nM and 2.6 nM, respectively.

With `C[C@H]1CCN1c1nc2c(c(-c3ccc4cnc(O)cc4c3)n1)CCC2` [Example 380, 6-[2-[(2S)-2-methylazetidin-1-yl]-6,7-dihydro-5H-cyclopenta[d]pyrimidin-4-yl]isoquinolin-3-ol], the pKa was 4.21 in data set [1] (setting [3]) and 9.04 in data set [1] (setting [6]). Besides, the results for the IC50 against human KHK-C (ADP-Glo) and against human KHK-A (ADP-Glo) were 7.9 nM and 13 nM, respectively. In data set [2], the EC50 was found to be 75.7 nM.

Consider `C[C@H]1CCN1c1nc2c(c(-c3ccc4c(O)nc(O)cc4c3)n1)CCC2` [Example 381, 6-[2-[(2S)-2-methylazetidin-1-yl]-6,7-dihydro-5H-cyclopenta[d]pyrimidin-4-yl]isoquinoline-1,3-diol], for which the values for the pKa in data set [1] (setting [3]) and in data set [1] (setting [6]) were 4.12 and 8.07, respectively. Also, the IC50 was found to be 89.7 nM on human KHK-C (ADP-Glo) and 18.9 nM at human KHK-A (ADP-Glo). Also, the concentration for a half-maximal effect (EC50) in data set [2] was above 5000 nM.

On to `C[C@H]1CCN1c1nc2c(c(-c3ccc(CNS(C)(=O)=O)s3)n1)CCC2` [Example 460, N-[[5-[2-[(2S)-2-methylazetidin-1-yl]-6,7-dihydro-5H-cyclopenta[d]pyrimidin-4-yl]-2-thienyl]methyl]methanesulfonamide], for which the pKa in data set [1] (setting [3]) was 4.66; in data set [1] (setting [6]), 11.2. Moreover, the IC50 on human KHK-C came out at 5.2 nM; against human KHK-A, 10.9 nM. The half-maximal effective concentration (EC50) in data set [2] was 23.6 nM.

Take `C[C@H]1[C@H](O)CN1c1nc(-c2ccc3c(c2)S(=O)(=O)CCNC3)c2c(n1)C(F)(F)CC2` [Example 489]: the pKa in data set [1] (setting [3]) amounted to 5.3. The figures for the IC50 against human KHK-C, on human KHK-A and at human OATP1B1 were 3.5 nM, 5.2 nM and 2670 nM, respectively. Moreover, the figures for the half-maximal effective concentration (EC50) with HepG2 cells (setting [4]) and in the data set with HepG2 cells (setting [5]) were 20.2 nM and 16.5 nM, respectively.

For the compound `O=S1(=O)CCNCc2ccc(-c3nc(N4CC[C@@H]4CF)nc4c3CCC4(F)F)cc21` [Example 490, (R)-8-(7,7-difluoro-2-(2-(fluoromethyl)azetidin-1-yl)-6,7-dihydro-5H-cyclopenta[d]pyrimidin-4-yl)-2,3,4,5-tetrahydrobenzo[f][1,4]thiazepine 1,1-dioxide], in data set [1] (setting [3]), the pKa turned out to be 5.5. In addition, the IC50 at human KHK-C came out at 1.2 nM; against human KHK-A, 4.6 nM; against human OATP1B1, 939 nM. Moreover, the values for the half-maximal effective concentration (EC50) in the data set on HepG2 cells (setting [4]) and with HepG2 cells (setting [5]) were 19.3 nM and 9.3 nM, respectively.

For `C[C@H]1CCN1c1nc2c(c(-c3ccc4c(c3)OCC4N)n1)CCC2` (stereo partly drawn) [Example 754, 6-[2-[(2S)-2-methylazetidin-1-yl]-6,7-dihydro-5H-cyclopenta[d]pyrimidin-4-yl]-2,3-dihydrobenzofuran-3-amine], the pKa in data set [1] (setting [3]) came out at 4.2. At human KHK-C, this compound had an IC50 of 1.9 nM. Besides, the EC50 with HepG2 cells (setting [4]) was 11.7 nM; in data set [2] it was 14.6 nM.

With `COc1ccc(-c2nc(N3C[C@@H](O)[C@@H]3C)nc3c2CCC3(F)F)cc1S(N)(=O)=O` [Example 763, 5-(7,7-difluoro-2-((2S,3R)-3-hydroxy-2-methylazetidin-1-yl)-6,7-dihydro-5H-cyclopenta[d]pyrimidin-4-yl)-2-methoxybenzenesulfonamide], in data set [1] (setting [3]), the pKa stood at 1.7. Moreover, the values for the IC50 against human KHK-C, against human KHK-A and against human OATP1B1 were 3 nM, 3.6 nM and 2570 nM, respectively. The results for the EC50 with HepG2 cells (setting [4]) and with HepG2 cells (setting [5]) were 8 nM and 6.9 nM, respectively.

For `C[C@H]1[C@H](F)CN1c1nc(-c2ccc([C@]3(N)C[S@@](=N)(=O)C3)cc2)c2c(n1)C(F)(F)CC2` [Example 797, (1R,3s)-3-amino-3-(4-(7,7-difluoro-2-((2S,3R)-3-fluoro-2-methylazetidin-1-yl)-6,7-dihydro-5H-cyclopenta[d]pyrimidin-4-yl)phenyl)-1-imino-1λ^6-thietane 1-oxide], in data set [1], the “1st pKa” value came to 4.7. Further, the IC50 was 0.2 nM on human KHK-C (ADP-Glo) and 7.3 nM against human KHK-A (ADP-Glo). Further, the half-maximal effective concentration (EC50) in data set [2] (read-out: NRK CTG EC50, NRK-52E cells, Cell-Titer Glo, 25 mM fructose, 48 hours) is 16.4 nM.

As to `NC1(c2ccc(-c3nc(N4CC[C@@H]4C(F)(F)F)nc4c3CCC4(F)F)cc2)CS(=O)(=O)C1` [Example 802, (R)-3-amino-3-(4-(7,7-difluoro-2-(2-(trifluoromethyl)azetidin-1-yl)-6,7-dihydro-5H-cyclopenta[d]pyrimidin-4-yl)phenyl)thietane 1,1-dioxide], in data set [1] (setting [3]), the pKa is 4.6. On human OATP1B1, this compound returned a concentration for half-maximal inhibition (IC50) of 10600 nM.
